The values that follow come from US8871753B2, “Macrocyclic compounds and their use as kinase inhibitors” (Incyte Corporation, priority 2008, dated 2014).

Common to all, as to assay type: biochemical
For assay [1], the target named is T1, human JAK1 (a.a. 837-1142) (Homo sapiens, UniProt P23458).
T1 construct: human JAK1 (a.a. 837-1142); His tag (N); made in house; host or cells: insect cells (baculovirus)
The experiment in a line: In vitro JAK kinase assay (HTRF, phosphorylation of a biotinylated peptide), JAK1. The settings on record: read-out: JAK1 IC50. Put shortly:
(§1)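 Kinase activity was measured as phosphorylation of a biotinylated peptide, with ATP at 90 μM for JAK1, 30 μM for JAK2 and 3 μM for JAK3. Reactions ran 1 hr at room temperature, were stopped with EDTA plus SA-APC and Eu-Py20, and were read by HTRF after 40 minutes of antibody binding.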

For assay [2], the target named is T2, Recombinant Human Anaplastic Lymphoma Kinase (Homo sapiens, UniProt Q9UM73).
T2 construct: purchased Invitrogen, Carlsbad, Calif
T2 sequence (Q9UM73 19-1620): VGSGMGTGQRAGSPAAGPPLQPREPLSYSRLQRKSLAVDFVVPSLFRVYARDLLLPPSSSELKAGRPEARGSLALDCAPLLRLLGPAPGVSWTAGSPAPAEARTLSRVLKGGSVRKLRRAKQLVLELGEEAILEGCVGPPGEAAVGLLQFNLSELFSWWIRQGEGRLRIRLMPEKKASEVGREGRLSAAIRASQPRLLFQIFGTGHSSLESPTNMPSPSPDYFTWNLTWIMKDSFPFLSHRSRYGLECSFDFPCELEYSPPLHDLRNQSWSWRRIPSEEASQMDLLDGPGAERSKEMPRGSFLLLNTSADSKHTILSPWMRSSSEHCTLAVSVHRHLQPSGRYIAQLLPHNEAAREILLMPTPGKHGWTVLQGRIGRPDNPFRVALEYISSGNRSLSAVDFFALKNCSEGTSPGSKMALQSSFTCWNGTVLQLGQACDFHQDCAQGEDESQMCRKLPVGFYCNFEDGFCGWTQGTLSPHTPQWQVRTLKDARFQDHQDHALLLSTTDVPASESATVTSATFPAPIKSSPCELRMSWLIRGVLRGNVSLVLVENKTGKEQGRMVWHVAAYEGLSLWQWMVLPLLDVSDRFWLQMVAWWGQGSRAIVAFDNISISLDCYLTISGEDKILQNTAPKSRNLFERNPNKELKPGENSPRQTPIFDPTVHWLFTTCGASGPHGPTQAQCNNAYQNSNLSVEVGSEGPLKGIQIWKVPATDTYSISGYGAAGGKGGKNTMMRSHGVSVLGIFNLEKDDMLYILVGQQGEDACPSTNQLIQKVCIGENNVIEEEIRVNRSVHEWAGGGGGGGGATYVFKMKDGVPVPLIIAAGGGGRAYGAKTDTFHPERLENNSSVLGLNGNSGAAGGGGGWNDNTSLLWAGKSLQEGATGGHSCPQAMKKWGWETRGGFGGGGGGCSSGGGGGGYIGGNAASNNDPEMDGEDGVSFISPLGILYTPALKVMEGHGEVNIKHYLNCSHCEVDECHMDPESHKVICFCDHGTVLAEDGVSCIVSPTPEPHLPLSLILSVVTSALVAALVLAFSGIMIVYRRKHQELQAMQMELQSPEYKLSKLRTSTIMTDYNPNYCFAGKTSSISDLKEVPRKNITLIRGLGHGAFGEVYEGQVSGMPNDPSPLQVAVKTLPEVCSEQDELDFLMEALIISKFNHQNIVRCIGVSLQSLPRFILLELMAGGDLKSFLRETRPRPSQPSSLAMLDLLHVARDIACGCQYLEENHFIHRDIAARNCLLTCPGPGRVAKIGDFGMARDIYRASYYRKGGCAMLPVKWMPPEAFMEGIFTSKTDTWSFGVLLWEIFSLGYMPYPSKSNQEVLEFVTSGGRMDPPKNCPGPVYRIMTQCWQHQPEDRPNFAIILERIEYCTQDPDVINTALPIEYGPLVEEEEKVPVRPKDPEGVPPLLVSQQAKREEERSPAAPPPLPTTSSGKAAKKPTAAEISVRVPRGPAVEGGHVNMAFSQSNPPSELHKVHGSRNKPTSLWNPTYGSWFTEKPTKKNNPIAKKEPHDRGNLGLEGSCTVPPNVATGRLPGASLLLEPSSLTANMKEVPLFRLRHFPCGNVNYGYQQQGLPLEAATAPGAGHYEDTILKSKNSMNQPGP
The experiment in a line: ALK HTRF kinase assay. The settings on record: for IC50: Table B1, cells without percent sign. The text has this: Materials: Recombinant Human Anaplastic Lymphoma Kinase was purchased from Invitrogen, Carlsbad, Calif. Peptide substrate (Biotin-[…]-amide) was custom synthesized at EZBiolab, Westfield, Ind. Streptavidin conjugated SureLight-Allophycocyania and LANCE Eu-W1024 labeled anti-phosphotyrosine antibody were from Perkin-Elmer, Boston, Mass. Microplates were from Corning Inc., Acton, Mass. All other reagents were from Sigma, St. Louis, Mo.
Plates were read in Fusion α-FP instrument (Perkin-Elmer). […] Signal=Bottom+(Top−Bottom)/(1+10^((Log(IC50)−Log [I])*Hill Slope) Bottom and Top refer to the post and pre-transition baselines, respectively.

The target in assay [3] is T3, human JAK2 (a.a. 828-1132) (Homo sapiens, UniProt O60674).
T3 construct: JAK2 (a.a. 828-1132); His tag (N); made in house; host or cells: insect cells (baculovirus)
T3 sequence (O60674 828-1132): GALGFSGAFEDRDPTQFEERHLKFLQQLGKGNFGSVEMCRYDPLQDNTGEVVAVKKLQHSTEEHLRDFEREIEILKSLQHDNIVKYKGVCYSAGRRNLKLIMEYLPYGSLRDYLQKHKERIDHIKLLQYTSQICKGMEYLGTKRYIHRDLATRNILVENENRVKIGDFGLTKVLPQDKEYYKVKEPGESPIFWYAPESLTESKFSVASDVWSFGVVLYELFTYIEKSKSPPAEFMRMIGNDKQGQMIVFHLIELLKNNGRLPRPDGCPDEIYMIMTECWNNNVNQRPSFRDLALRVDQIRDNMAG
The experiment in a line: In vitro JAK kinase assay (HTRF, phosphorylation of a biotinylated peptide), JAK2. Put shortly: as §1
For orientation: TR-FRET usually uses a lanthanide donor and a delayed reading to cut background.

A further assay concerns the target TYK2 (Homo sapiens, UniProt P29597). The experiment in a line: TYK2 kinase inhibition (Table A1). The note with it: Table B1.
The mark [4] stands for this setting: method AA1 (90 μM ATP) or AA2 (1000 μM ATP), not stated per value.
Setting [5] is: compound at 500 nM or 1 mM, 90 μM ATP.
Setting [6] is: compound at a concentration of 500 nM or 1 mM (not specified), cells shown as percentage.
The mark [7] stands for this setting: method AA1 (30 μM ATP) or AA2 (1000 μM ATP), not stated per value.

Where a name gives a salt, the structure may show the parent alone. Read-outs that look alike come from different tables or passages of the source.

Chain of TYK2 (P29597 whole entry): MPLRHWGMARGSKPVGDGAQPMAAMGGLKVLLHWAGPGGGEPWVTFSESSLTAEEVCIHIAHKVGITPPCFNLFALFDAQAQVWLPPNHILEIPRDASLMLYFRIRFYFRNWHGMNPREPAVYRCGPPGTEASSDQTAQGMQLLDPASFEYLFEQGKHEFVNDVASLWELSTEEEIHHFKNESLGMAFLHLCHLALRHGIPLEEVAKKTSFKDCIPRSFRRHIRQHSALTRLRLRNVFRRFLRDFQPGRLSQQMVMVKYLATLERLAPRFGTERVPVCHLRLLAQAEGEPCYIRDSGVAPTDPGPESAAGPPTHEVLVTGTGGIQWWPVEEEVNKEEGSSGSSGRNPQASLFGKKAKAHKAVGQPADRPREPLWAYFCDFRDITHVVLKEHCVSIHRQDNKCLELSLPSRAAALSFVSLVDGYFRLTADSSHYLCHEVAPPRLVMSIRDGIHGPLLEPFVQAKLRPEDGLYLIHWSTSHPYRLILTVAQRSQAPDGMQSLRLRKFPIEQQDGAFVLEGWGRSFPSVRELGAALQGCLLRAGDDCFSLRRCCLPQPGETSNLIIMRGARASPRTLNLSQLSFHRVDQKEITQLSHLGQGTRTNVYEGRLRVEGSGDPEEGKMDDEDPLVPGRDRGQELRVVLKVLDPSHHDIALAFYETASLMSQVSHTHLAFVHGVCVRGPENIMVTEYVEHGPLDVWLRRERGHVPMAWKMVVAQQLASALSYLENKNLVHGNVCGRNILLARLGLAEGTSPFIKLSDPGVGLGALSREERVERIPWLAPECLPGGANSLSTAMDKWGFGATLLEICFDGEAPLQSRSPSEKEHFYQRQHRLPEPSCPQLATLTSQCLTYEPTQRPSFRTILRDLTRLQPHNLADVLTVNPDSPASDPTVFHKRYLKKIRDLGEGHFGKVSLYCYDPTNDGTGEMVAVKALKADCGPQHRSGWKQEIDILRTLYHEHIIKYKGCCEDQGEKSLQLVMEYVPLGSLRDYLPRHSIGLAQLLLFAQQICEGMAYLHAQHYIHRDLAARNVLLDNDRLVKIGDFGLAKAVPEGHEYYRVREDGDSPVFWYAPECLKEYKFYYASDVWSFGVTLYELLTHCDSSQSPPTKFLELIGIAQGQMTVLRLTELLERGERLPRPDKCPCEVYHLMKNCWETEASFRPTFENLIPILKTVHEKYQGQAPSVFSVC
T1 sequence (P23458 849-1154): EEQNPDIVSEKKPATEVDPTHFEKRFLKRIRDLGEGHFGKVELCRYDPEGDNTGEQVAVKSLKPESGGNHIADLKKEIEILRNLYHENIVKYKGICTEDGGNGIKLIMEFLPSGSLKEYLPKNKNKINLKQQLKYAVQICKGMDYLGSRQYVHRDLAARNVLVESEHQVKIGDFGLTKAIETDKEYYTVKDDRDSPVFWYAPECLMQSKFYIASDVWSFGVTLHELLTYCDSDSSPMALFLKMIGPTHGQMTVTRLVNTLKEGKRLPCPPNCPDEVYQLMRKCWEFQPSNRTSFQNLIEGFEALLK

Turning to `O=C(CC1CCN(C(=O)c2ccns2)CC1)Nc1ccc2cc1CCc1cncc(c1)Nc1ncc(Cl)c(n1)N2` [Example A168, N-[6-Chloro-2,4,8,18,22-pentaazatetracyclo[14.3.1.1(3,7).1(9,13)]docosa-1(20),3(22),4,6,9(21),10,12,16,18-nonaen-12-yl]-2-[1-(isothiazol-5-ylcarbonyl)piperidin-4-yl]acetamide bis(trifluoroacetate)], the IC50 (usually the concentration at which inhibition is half-maximal) in assay [1] (setting [4]) came out at 22 nM. For the same compound, in assay [2] (setting [5]), the “ALK % of inhibition at a concentration of 500 nM or 1 mM” value (“ALK % of inhibition” for short) came to 27%.

`Cc1oncc1C(=O)N1CC[C@H](NC(=O)Nc2ccc3cc2CCc2cncc(c2)Nc2ncc(Cl)c(n2)N3)C1` [Example B266, N-[6-Chloro-2,4,8,18,22-pentaazatetracyclo[14.3.1.1(3,7).1(9,13)]docosa-1(20),3(22),4,6,9(21),10,12,16,18-nonaen-12-yl]-N′-{(3S)-1-[(5-methylisoxazol-4-yl)carbonyl]pyrrolidin-3-yl}urea bis(trifluoroacetate)]: the IC50 in assay [1] (Table B1) was 17 nM; in assay [3] (Table B1) it was 601 nM; against TYK2 it was 25 nM. Also, in assay [2] (setting [6]), the “ALK % of inhibition” value was 22%.

In the case of `Cn1ccc(C(=O)Nc2cc3cc(c2)Nc2nc(ncc2Cl)Nc2cccc(c2)CC3)n1` [Example B207, N-[6-Chloro-2,4,8,22-tetraazatetracyclo[14.3.1.1(3,7).1(9,13)]docosa-1(20),3(22),4,6,9(21),10,12,16,18-nonaen-11-yl]-1-methyl-1H-pyrazole-3-carboxamide trifluoroacetate], the IC50 in assay [1] (Table B1) was 176 nM; in assay [3] (Table B1), 125 nM; at TYK2 it was 700 nM; in assay [2], > 10000 nM.

`NC1CCN(c2ccnc(Nc3ccc4cc3CCc3cncc(c3)Nc3ncc(Cl)c(n3)N4)n2)CC1` [Example B282, N-[4-(4-Aminopiperidin-1-yl)pyrimidin-2-yl]-6-chloro-2,4,8,18,22-pentaazatetracyclo[14.3.1.1(3,7).1(9,13)]docosa-1(20),3(22),4,6,9(21),10,12,16,18-nonaen-12-amine tetrakis(trifluoroacetate)]: the IC50 in assay [1] (Table B1) and in assay [3] (Table B1) was > 1000 nM throughout. Besides, the “ALK % of inhibition” value in assay [2] (setting [6]) is recorded as 0%.

With `Clc1nccc(N2CCN(Cc3cc4cc(c3)Nc3nc(ncc3Cl)Nc3cccc(c3)CC4)CC2)n1` [Example B218, 6-Chloro-11-{[4-(2-chloropyrimidin-4-yl)piperazin-1-yl]methyl}-2,4,8,22-tetraazatetracyclo[14.3.1.1(3,7).1(9,13)]docosa-1(20),3(22),4,6,9(21),10,12,16,18-nonaene tris(trifluoroacetate)], the IC50 is 164 nM in assay [1] (Table B1), 25 nM in assay [3] (Table B1), 900 nM against TYK2 and > 10000 nM in assay [2].

In the case of `O=C(CC1CCN(c2nccs2)CC1)Nc1ccc2cc1CCc1cncc(c1)Nc1ncc(Cl)c(n1)N2` [Example A159, N-[6-Chloro-2,4,8,18,22-pentaazatetracyclo[14.3.1.1(3,7).1(9,13)]docosa-1(20),3(22),4,6,9(21),10,12,16,18-nonaen-12-yl]-2-[1-(1,3-thiazol-2-yl)piperidin-4-yl]acetamide tris(trifluoroacetate)], the IC50 in assay [1] (setting [4]) is 3.6 nM; in assay [3] (setting [7]), 87 nM. For the same compound, in assay [2] (setting [5]), the “ALK % of inhibition” value amounted to 24%.

Take `Cc1occc1C(=O)N1CCC(CC(=O)Nc2ccc3cc2CCc2cncc(c2)Nc2ncc(Cl)c(n2)N3)CC1` [Example A160, N-[6-Chloro-2,4,8,18,22-pentaazatetracyclo[14.3.1.1(3,7).1(9,13)]docosa-1(20),3(22),4,6,9(21),10,12,16,18-nonaen-12-yl]-2-[1-(2-methyl-3-furoyl)piperidin-4-yl]acetamide bis(trifluoroacetate)]: the IC50 in assay [1] (setting [4]) is 5 nM; in assay [3] (setting [7]), 271 nM. Besides, the “ALK % of inhibition” value in assay [2] (setting [5]) is reported as 19%.

In the case of `Cc1ccc(C(=O)N2CCC(CC(=O)Nc3ccc4cc3CCc3cncc(c3)Nc3ncc(Cl)c(n3)N4)CC2)o1` [Example A162, N-[6-Chloro-2,4,8,18,22-pentaazatetracyclo[14.3.1.1(3,7).1(9,13)]docosa-1(20),3(22),4,6,9(21),10,12,16,18-nonaen-12-yl]-2-[1-(5-methyl-2-furoyl)piperidin-4-yl]acetamide bis(trifluoroacetate)], the IC50 in assay [1] (setting [4]) amounted to 8.2 nM; in assay [3] (setting [7]), 289 nM. For the same compound, the “ALK % of inhibition” value in assay [2] (setting [5]) stood at 33%.

As for `Cc1nonc1C(=O)N1CCC(CC(=O)Nc2ccc3cc2CCc2cncc(c2)Nc2ncc(Cl)c(n2)N3)CC1` [Example A166, N-[6-Chloro-2,4,8,18,22-pentaazatetracyclo[14.3.1.1(3,7).1(9,13)]docosa-1(20),3(22),4,6,9(21),10,12,16,18-nonaen-12-yl]-2-{1-[(4-methyl-1,2,5-oxadiazol-3-yl)carbonyl]piperidin-4-yl}acetamide bis(trifluoroacetate)], the IC50 in assay [1] (setting [4]) is 6.5 nM; in assay [3] (setting [7]) it was 300 nM. Also, the “ALK % of inhibition” value in assay [2] (setting [5]) stood at 32%.

In the case of `Cn1ccnc1C(=O)N1CCC(CC(=O)Nc2ccc3cc2CCc2cncc(c2)Nc2ncc(Cl)c(n2)N3)CC1` [Example A164, N-[6-Chloro-2,4,8,18,22-pentaazatetracyclo[14.3.1.1(3,7).1(9,13)]docosa-1(20),3(22),4,6,9(21),10,12,16,18-nonaen-12-yl]-2-{1-[(1-methyl-1H-imidazol-2-yl)carbonyl]piperidin-4-yl}acetamide bis(trifluoroacetate)], the IC50 in assay [1] (setting [4]) came to 5.3 nM; in assay [3] (setting [7]), 175 nM. Besides, in assay [2] (setting [5]), the “ALK % of inhibition” value was determined as 14%.

With `Cc1ccoc1C(=O)N1CCC(CC(=O)Nc2ccc3cc2CCc2cncc(c2)Nc2ncc(Cl)c(n2)N3)CC1` [Example A161, N-[6-Chloro-2,4,8,18,22-pentaazatetracyclo[14.3.1.1(3,7).1(9,13)]docosa-1(20),3(22),4,6,9(21),10,12,16,18-nonaen-12-yl]-2-[1-(3-methyl-2-furoyl)piperidin-4-yl]acetamide bis(trifluoroacetate)], the IC50 in assay [1] (setting [4]) worked out at 15 nM; in assay [3] (setting [7]) it was 300 nM. Further, the “ALK % of inhibition” value in assay [2] (setting [5]) was 27%.

`Cc1nocc1C(=O)N1CCC(CC(=O)Nc2ccc3cc2CCc2cncc(c2)Nc2ncc(Cl)c(n2)N3)CC1` [Example A165, N-[6-Chloro-2,4,8,18,22-pentaazatetracyclo[14.3.1.1(3,7).1(9,13)]docosa-1(20),3(22),4,6,9(21),10,12,16,18-nonaen-12-yl]-2-{1-[(3-methylisoxazol-4-yl)carbonyl]piperidin-4-yl}acetamide bis(trifluoroacetate)]: the IC50 was 64 nM in assay [1] (setting [4]) and > 1000 nM in assay [3] (setting [7]). Also, in assay [2] (setting [5]), the “ALK % of inhibition” value is given as 23%.

As to `Nc1nonc1C(=O)N1CCC(CC(=O)Nc2ccc3cc2CCc2cncc(c2)Nc2ncc(Cl)c(n2)N3)CC1` [Example A167, 2-{1-[(4-Amino-1,2,5-oxadiazol-3-yl)carbonyl]piperidin-4-yl}-N-[6-chloro-2,4,8,18,22-pentaazatetracyclo[14.3.1.1(3,7).1(9,13)]docosa-1(20),3(22),4,6,9(21),10,12,16,18-nonaen-12-yl]acetamide tris(trifluoroacetate)], the IC50 in assay [1] (setting [4]) worked out at 0.6 nM; in assay [3] (setting [7]), 59 nM. Besides, the “ALK % of inhibition” value in assay [2] (setting [5]) amounted to 33%.
